Experimental findings from patent US20220362279A1, “USE OF OLIGONUCLEOTIDES FOR THE TREATMENT AND PREVENTION OF PAIN” (CONSEJO NACIONAL DE INVESTIGACIONES CIENTÍFICAS Y TÉCNICAS, priority 2018, published 2022) are described below.

Structures can show the parent of a compound that is named as a salt.

Assay [1] concerns rats with postsurgical pain (plantar incision). Nature of the assay: Naloxone challenge in IMT504-pre-treated rats with plantar incision, mechanical withdrawal threshold. The format is in vivo, rat. The following applies: IMT504-treated injured rats; naloxone 2 mg/kg i.p. on day 3 after injury.
Procedure: In all experiments, the oligodeoxynucleotide (ODN) IMT504, with sequence 5′-[sequence]-3′ (SEQ ID No 1) was used. The HPLC-grade phosphorothioate ODN (Biosynthesis Inc., Lewisville, Tex., USA) was suspended in sterile saline solution (VEH, 0.9% NaCl; 20 mg/ml; storage concentration) and assayed for LPS contamination. Working concentration doses (6 mg/kg) were obtained by additional dissolving in sterile VEH. The ODN was administered subcutaneously, at a final volume of 200-300 μl, depending on animal weight.
A group of rats also received an intraperitoneal (i.p.) injection of naloxone hydrochloride (Narxona 0.4 mg/ml; Scott-Cassara, Bs. As., Argentina), at a dose of 2 mg/kg, in order to test if the effect of IMT504 could be blocked by the pan-opioid receptor antagonist.
The rat hind paw plantar incision model of postoperative pain was used as previously described [Brennan, T. J., E. P. Vandermeulen, and G. F. Gebhart, Characterization of a rat model of incisional pain. […] Briefly, rats were anesthetized using isoflurane (5% induction, 2.5% maintenance, 0.8 l/min O2 flow rate; Piramal Healthcare, UK) and the plantar aspect of the right hind paw was disinfected with povidone iodine. A 1.0-cm longitudinal incision was made 0.5 cm from the end of the heel. The underlying flexor muscle was also incised longitudinally, allowing the muscle origin and insertion to remain intact. After hemostasis by gentle pressure, the skin was closed with sutures of 5-0 nylon.
Rats were divided into injured rats receiving IMT504 (6 mg/kg, dissolved in VEH) or VEH alone, 48h and 24 h prior to surgery. […]
Mechanical withdrawal thresholds were assessed by using von Frey nylon monofilaments of different bending forces (1.4, 2, 6, 8, 10, 15 and 26 g; Stoelting Inc., Wooddale, USA) and the modified up-down method of Dixon, as described by Chaplan and cols. (Chaplan, S. R., et al., Quantitative assessment of tactile allodynia in the rat paw. J Neurosci Methods, 1994. 53(1): p. 55-63) , to establish the 50% withdrawal threshold. […]
The test system is the same in assay [2]. Briefly: Opioid sparing: morphine in VEH- or IMT504-pre-treated rats with plantar incision, mechanical withdrawal threshold. The conditions noted are these: for effect on withdrawal thresholds: VEH-pre-treated injured rats, 6 h and 1 day after injury. The format is in vivo, rat. As to the method:
In all experiments, the oligodeoxynucleotide (ODN) IMT504, with sequence 5′-[…]-3′ (SEQ ID No 1) was used. The HPLC-grade phosphorothioate ODN (Biosynthesis Inc., Lewisville, Tex., USA) was suspended in sterile saline solution (VEH, 0.9% NaCl; 20 mg/ml; storage concentration) and assayed for LPS contamination. Working concentration doses (6 mg/kg) were obtained by additional dissolving in sterile VEH. The ODN was administered subcutaneously, at a final volume of 200-300 μl, depending on animal weight.
Experiments addressing the opioid sparing effects of IMT504 included the subcutaneous (s.c.) injection of morphine hydrochloride trihydrate (Neocalmans, 10 mg/ml, Soubeiran Chobet, Buenos Aires, Argentina) at three different concentrations (1, 3 or 10 mg/kg, dissolved in sterile distilled water).
The rat hind paw plantar incision model of postoperative pain was used as previously described [Brennan, T. J., E. P. Vandermeulen, and G. F. Gebhart, Characterization of a rat model of incisional pain. Pain, 1996. 64(3): p. 493-501. Briefly, rats were anesthetized using isoflurane (5% induction, 2.5% maintenance, 0.8 l/min O2 flow rate; Piramal Healthcare, UK) and the plantar aspect of the right hind paw was disinfected with povidone iodine. A 1.0-cm longitudinal incision was made 0.5 cm from the end of the heel. The underlying flexor muscle was also incised longitudinally, allowing the muscle origin and insertion to remain intact. After hemostasis by gentle pressure, the skin was closed with sutures of 5-0 nylon.
Rats were divided into injured rats receiving IMT504 (6 mg/kg, dissolved in VEH) or VEH alone, 48h and 24 h prior to surgery. These groups were further subdivided into: 1) Rats followed during 3 days after the injury (n=6 per group), for assessment of pain-like behavior after the co-administration of morphine dissolved in injectable water (vehicle) at different doses, 6 and 24 h after injury; 2) Rats followed during 3 days after the injury (n=6 per group), for assessment of pain-like behavior after the co-administration of injectable water (vehicle) alone, 6 and 24 h after injury; 3) Rats followed during 21 days (n=8), for analysis of the administration of naloxone, 3 days after injury.
Mechanical withdrawal thresholds were assessed by using von Frey nylon monofilaments of different bending forces (1.4, 2, 6, 8, 10, 15 and 26 g; Stoelting Inc., Wooddale, USA) and the modified up-down method of Dixon, as described by Chaplan and cols. (Chaplan, S. R., et al., Quantitative assessment of tactile allodynia in the rat paw. J Neurosci Methods, 1994. 53(1): p. 55-63) , to establish the 50% withdrawal threshold. Results were obtained using the formula: 50% g threshold=[…], where Xf=value (in log units) of the final von Frey hair used; k=tabular value for the pattern of positive/negative responses; and […] difference (in log units) between stimuli. Mechanical withdrawal thresholds were tested 48 h before surgery (basal responses), and 6 h, 1, 3, 7, 14 and 21 days after injury.
A dose-response experiment to evaluate the effect of the s.c. administration of morphine at different doses (10, 3 and 1 mg/kg), 6 h or 1 day after injury, in VEH- or IMT504-treated rats (time-points were chosen based on the fact that a certain degree of mechanical withdrawal threshold alterations was still present in IMT504-treated rats was done, which allowed to test if within this therapeutic window, it was possible to fully revert pain-like behavior using smaller morphine doses). […]

For `C=CCN1CC[C@]23c4c5ccc(O)c4O[C@H]2C(=O)CC[C@@]3(O)[C@H]1C5` [naloxone, naloxone hydrochloride, reference compound], the “withdrawal threshold 15 and 30 min after naloxone” value in assay [1] is “drastic and significant decrease in their withdrawal threshold”.

`CN1CC[C@]23c4c5ccc(O)c4O[C@H]2[C@@H](O)C=C[C@H]3[C@H]1C5.Cl.O.O.O` [morphine, morphine hydrochloride trihydrate, reference compound]: the “time after injection free of pain-like behavior” value in assay [2] (VEH rats receiving 10 mg morphine) is 90 to 180 min. In addition, the “time after administration with fully reversed pain-like behavior” value in assay [2] (VEH rats receiving 1 or 3 mg morphine, both time-points) came to 60 min. In addition, the “effect on withdrawal thresholds” value in assay [2] (morphine 10 mg/kg s.c.) was “very effective in increasing withdrawal thresholds”; in assay [2] (morphine 3 and 1 mg/kg s.c.), “milder and comparable effects”.
